Reference: patent publication US20080103199A1, “TREATMENT OF PERVASIVE DEVELOPMENTAL DISORDERS” (priority 2006, published 2008)

Key:
dominant rats = assay: Reduction of Dominant Behavior Model (RDBM) of mania, dominant-submissive rat food competition test; assay type: in vivo, Sprague-Dawley rats; settings: 5 weeks, dominant rat treated
From the text: In this study, the effects of COMPOUND #7 on dominant or submissive behavior in pairs of rats competing for food are examined. It has been shown that anti-manic drugs, including anticonvulsants, decrease dominance and antidepressant drugs reduce submissiveness. This model uses dominant behavior as a model of mania and submissive behavior as a model of depression. The dominance and submissiveness is defined in a competition test and measured as the relative success of two food-restricted rats to gain access to a feeder. Rats are randomly paired and placed in an apparatus allowing them to compete for a food reward. The dominant-submissive relationship develops over a 2-week period. The submissive or dominant animals in pairs selected after 2 weeks of training were treated orally […] (b.i.d.) with COMPOUND #7 at 3 or 30 mg/kg for 5 weeks. […]
The objective of this study was to determine if COMPOUND #7 is active in the Reduction of Submissive Behavior Model (RSBM) of depression and the Reduction of Dominant Behavior Model (RDBM) of mania. […] The endpoints measured were the development of a significant reduction of submissive or dominant behavior and its time of onset. […]
The test involves placing each member of a pair in opposite chambers of the testing apparatus. […] The test is conducted once a day over a 5-minute period and the time spent on the feeder by each animal is recorded. […]

[1] = system: Crl:CD-1(ICR)BR albino mice; assay: Isolation-induced aggression model in pairs of mice; assay type: in vivo
Method: The effects of test compound on the aggressive behavior of Crl:CD-1(ICR)BR albino mice were evaluated using the paradigm of isolation-induced aggression.
Male Crl:CD-1(ICR)BR albino mice, fasted overnight, were individually housed for 5 weeks in plastic cages on wood-chip bedding. Subsequently, they were paired for 1 minute daily for several days by placing one individually housed mouse (intruder) into the resident cage of another individually housed mouse (resident). The 1-minute pairing of intruder and resident mouse elicits aggressive behavior. Pairs of mice showing consistent aggressive behavior when paired for 1 minute, during several days were selected as subjects for drug testing.
Test compound (10 to 40 mg/kg p.o.) or the vehicle (methocel; aqueous 0.5%, w/v, hydroxypropyl methylcellulose solution) was administered (10 mL/kg) to the resident and intruder mouse. One and 4 hours after dosing, the mice were paired and the onset of fighting was recorded. […] The duration of fighting during a 1-minute test period was recorded. Mice were re-used in this procedure after several days to a week to allow metabolism and elimination of test compounds. The mice weighed 32 to 49 g at the time of testing and were fasted overnight before dosing. Mice were euthanized with CO2 if they were sick or injured.
Results were expressed as the median onset of fighting and median duration of fighting in vehicle and drug-treated groups. The statistical significance of an increase in the median onset or a reduction in the median duration of fighting in pairs of mice given test compound or its vehicle 1 and 4 hours after administration was determined using the nonparametric Wilcoxon test (p<0.05, 1-tailed).

NC(=O)OC[C@@H](O)c1ccccc1Cl [COMPOUND #7]
Effect on performance (competitiveness) of dominant rats (dominant rats; 3 mg/kg b.i.d. p.o.): decreased the performance | Effect on performance (competitiveness) of dominant rats (dominant rats; 30 mg/kg b.i.d. p.o.): significantly increased the competitiveness | Onset for initiation of fighting compared to vehicle-treated group ([1]; 20 mg/kg p.o., 4 hours after administration): statistically significantly shorter | Effect on isolation-induced aggressive behavior ([1]; 40 mg/kg p.o., 1 hour after administration, vs vehicle (p<0.05)): inhibited isolation-induced aggressive behavior | Effect on median duration of fighting compared to vehicle-treated groups ([1]; any dose group (10 to 40 mg/kg p.o.), 4 hours after administration): not affected
